Measurements reported in patent publication US6680323B2, “Dihydropyrimidines and uses thereof” (Synaptic Pharmaceutical Corporation, priority 1998, dated 2004).
Where a name gives a salt, the structure may show the parent alone.

Assays:
human α1d receptor = target: T1, human α1d receptor (Homo sapiens, UniProt P25100); experiment: Radioligand binding ([3H]prazosin) at cloned human α1d receptor; details: second column headed hα1a (c3); membranes of transfected LM(tk−) cells, [3H]prazosin 0.5 nM; read-out: Binding affinity hα1a
T1 construct: expressed in transfected cells
T1 sequence (P25100 1-572): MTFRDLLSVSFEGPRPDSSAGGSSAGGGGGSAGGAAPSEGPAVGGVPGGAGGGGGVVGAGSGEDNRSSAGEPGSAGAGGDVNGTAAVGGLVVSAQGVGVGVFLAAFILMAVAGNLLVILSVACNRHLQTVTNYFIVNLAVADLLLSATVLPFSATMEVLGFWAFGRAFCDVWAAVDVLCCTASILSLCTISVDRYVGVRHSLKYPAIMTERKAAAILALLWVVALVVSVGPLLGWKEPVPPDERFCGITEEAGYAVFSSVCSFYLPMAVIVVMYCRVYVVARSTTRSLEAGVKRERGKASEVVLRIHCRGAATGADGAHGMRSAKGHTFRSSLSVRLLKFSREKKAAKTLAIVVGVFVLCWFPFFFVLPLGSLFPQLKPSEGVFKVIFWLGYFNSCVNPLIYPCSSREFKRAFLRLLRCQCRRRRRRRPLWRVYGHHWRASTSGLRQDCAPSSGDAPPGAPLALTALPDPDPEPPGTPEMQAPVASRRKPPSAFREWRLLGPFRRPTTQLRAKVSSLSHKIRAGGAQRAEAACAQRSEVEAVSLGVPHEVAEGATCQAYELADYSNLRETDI
Procedure: The activity of compounds at the different human receptors was determined in vitro using cultured cell lines that selectively express the receptor of interest. These cell lines were prepared by transfecting the cloned cDNA or cloned genomic DNA or constructs containing both genomic DNA and cDNA encoding the human α-adrenergic receptors as follows:
α1d Human Adrenergic Receptor
The entire coding region of α1d (1719 bp), including 150 base pairs of 5′ untranslated sequence (5′ UT) and 300 bp of 3′ untranslated sequence (3′ UT), was cloned into the BamHI and ClaI sites of the polylinker-modified eukaryotic expression vector pCEXV-3, called EXJ.HR. The construct involved the ligation of partial overlapping human lymphocyte genomic and hippocampal cDNA clones: 5′ sequence were contained on a 1.2 kb SmaI-XhoI genomic fragment (the vector-derived BamHI site was used for subcloning instead of the internal ninsert-derived SmaI site) and 3′ sequences were contained on an 1.3 kb XhoI-ClaI cDNA fragment (the ClaI site was from the vector polylinker). Stable cell lines were obtained by cotransfection with the plasmid α1A/EXJ (expression vector containing the α1a receptor gene (old nomenclature)) and the plasmid pGCcos3neo (plasmid containing the aminoglycoside transferase gene) into LM(tk−) cells using calcium phosphate technique. The cells were grown, in a controlled environment (37° C., 5% CO2), as monolayers in Dulbecco's modified Eagle's Medium (GIBCO, Grand Island, N.Y.) containing 25 mM glucose and supplemented with 10% bovine calf serum, 100 units/ml penicillin g, and 100 μg/ml streptomycin sulfate. Stable clones were then selected for resistance to the antibiotic G-418 (1 mg/ml), and membranes were harvested and assayed for their ability to bind [^3H]prazosin as described below (see “Radioligand Binding assays”).
The cell line expressing the human α1d receptor used herein was designated L-α1A (old nomenclature) and was deposited with the American Type Culture Collection, 12301 Parklawn Drive, Rockville, Md. 20852, U.S.A. under the provisions of the Budapest Treaty for the International Recognition of the Deposit of Microorganisms for the Purposes of Patent Procedure. The cell line expressing the human α1d receptor, was accorded ATCC Accession No. CRL 11138, and was deposited on Sep. 25, 1992.
Radioligand Binding Assays for α1 Receptors
Transfected cells from culture flasks were scraped into 5 ml of 5 mM Tris-HCl, 5 mM EDTA, pH 7.5, and lysed by sonication. The cell lysates were centrifuged at 1000 rpm for 5 min at 4° C., and the supernatant was centrifuged at 30,000×g for 20 min at 4° C. The pellet was suspended in 50 mM Tris-HCl, 1 mM MgCl2, and 0.1% ascorbic acid at pH 7.5. Binding of the α1 antagonist [^3H]prazosin (0.5 nM, specific activity 76.2 Ci/mmol) to membrane preparations of LM(tk−) cells was done in a final volume of 0.25 ml and incubated at 37° C. for 20 min. Nonspecific binding was determined in the presence of 10 μM phentolamine. The reaction was stopped by filtration through GF/B filters using a cell harvester. Inhibition experiments, routinely consisting of 7 concentrations of the tested compounds, were analyzed using a non-linear regression curve-fitting computer program to obtain Ki values.

human α2b receptor = target: T2, human α2b receptor (Homo sapiens, UniProt P18089); experiment: Competition binding ([3H]rauwolscine) at cloned human α2b receptor; details: transfected LM(tk−) cells, [3H]rauwolscine 0.5 nM; read-out: Binding affinity hα2b
T2 construct: expressed in transfected cells
T2 sequence (P18089 1-450): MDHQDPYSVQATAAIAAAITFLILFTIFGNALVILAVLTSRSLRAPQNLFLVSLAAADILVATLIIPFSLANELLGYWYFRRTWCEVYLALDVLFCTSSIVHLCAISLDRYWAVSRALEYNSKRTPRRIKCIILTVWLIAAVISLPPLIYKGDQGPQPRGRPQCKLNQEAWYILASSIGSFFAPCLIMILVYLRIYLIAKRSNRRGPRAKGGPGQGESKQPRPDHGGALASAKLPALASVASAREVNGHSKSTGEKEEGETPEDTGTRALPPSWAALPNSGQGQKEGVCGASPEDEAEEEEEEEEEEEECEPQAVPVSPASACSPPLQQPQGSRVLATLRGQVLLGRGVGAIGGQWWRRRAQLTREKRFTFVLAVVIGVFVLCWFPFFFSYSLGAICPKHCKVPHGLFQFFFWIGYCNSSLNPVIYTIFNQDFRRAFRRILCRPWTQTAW
Text: α2 Human Adrenergic Receptors
To determine the potency of α1 antagonists at the α2 receptors, LM(tk−) cell lines stably transfected with the genes encoding the α2a, α2b, and α2c receptors were used. The cell line expressing the α2a receptor is designated L-α2A, and was deposited on Nov. 6, 1992 under ATCC Accession No. CRL 11180. The cell line expressing the α2b receptor is designated L-NGC-α2B, and was deposited on Oct. 25, 1989 under ATCC Accession No. CRL10275. The cell line expressing the α2c receptor is designated L-α2C, and was deposited on Nov. 6, 1992 under ATCC Accession No. CRL-11181. All the cell lines were deposited with the American Type Culture Collection, 12301 Parklawn Drive, Rockville, Md. 20852, U.S.A. under the provisions of the Budapest Treaty for the International Recognition of the Deposit of Microorganisms for the Purposes of Patent Procedure. Cell lysates were prepared as described above (see Radioligand Binding Assays), and suspended in 25 mM glycylglycine buffer (pH 7.6 at room temperature). Equilibrium competition binding assay were performed using [3H]rauwolscine (0.5 nM), and nonspecific binding was determined by incubation with 10 μM phentolamine. The bound radioligand was separated by filtration through GF/B filters using a cell harvester.

| SMILES | Ki (human α1d receptor) [µM] | Ki (human α2b receptor) [µM] |
| --- | --- | --- |
| O=C1OCC2=C1C(c1ccc(F)c(F)c1)N(C(=O)NCCCN1CCC(c3ccccn3)CC1)C(=O)N2 (single isomer, unassigned; (+)) [Compound 8, (+)-1-3-{[4-(3,4-Difluorophenyl)-2,5-dioxo-1,2,5,7-tetrahydro-4H-furo[3,4-d]-pyrimidine-3-carbonyl]amino}-propyl-4-(2-pyridyl)-piperidine] | 1.97 | 0.97 |
| COCC1=C(C(=O)OC)[C@H](c2ccc(F)c(F)c2)N(C(=O)NCCCO)C(=O)N1 [Compound 1, (+)-1,2,3,6-Tetrahydro-1-(3-hydroxypropyl)carboxamido-5-methoxycarbonyl-4-methoxymethyl-6-(3,4-difluorophenyl)-2-oxo-pyrimidine] | > 50 | 26 |

Further lines, results first:

| Ki (human α1d receptor) [µM] | Ki (human α2b receptor) [µM] | SMILES |
| --- | --- | --- |
| 3.7 | 8.7 | COCC1=C(C(=O)OC)[C@H](c2ccc(F)c(F)c2)N(C(=O)NCCCN2CCC(c3cccc[n+]3[O-])CC2)C(=O)N1 [Compound 2, (+)-1,2,3,6-Tetrahydro-1-{N-[4-(2-pyridyl)piperidin-1-yl]propyl}carboxamido-5-methoxycarbonyl-4-methoxymethyl-6-(3,4-difluorophenyl)-2-oxopyrimidine-pyridine-N-oxide hydrochloride] |
| > 5 | 9.66 | COCC1=C(C(=O)OC)[C@H](c2ccc(F)c(F)c2)N(C(=O)NCCC[n+]2ccc(-c3ccccn3)cc2)C(=O)N1 [Compound 3, 4-(2-Pyridyl)-1-{3-[5-carboxymethyl-4-methoxymethyl-2-oxo-6(S)-(3,4-difluorphenyl)-1,2,3,6-tetrahydropyrimidin-1-yl]carboxyaminopropyl}pyridinium chloride] |
| 1.2 | 1.2 | COC(=O)C1=C(CO)NC(=O)N(C(=O)NCCCN2CCC(c3ccccn3)CC2)[C@H]1c1ccc(F)c(F)c1 [Compound 7, (+)-1,2,3,6-Tetrahydro-1-{N-[4-(2-pyridyl)piperidin-1-yl]propyl}carboxamido-5-methoxycarbonyl-4-hydroxymethyl-6-(3,4-difluorophenyl)-2-oxopyrimidine] |
| > 5 | > 50 | O=C(O)CCNC(=O)N1C(=O)NC2=C(C(=O)OC2)[C@@H]1c1ccc(F)c(F)c1 [Compound 9] |
